Laboratory results: patent US20240238301A1, “COMPOSITIONS AND METHODS FOR REDUCED TOXICITY IN TRANSPLANTATION USING JANUS KINASE (JAK) INHIBITORS” (THE REGENTS OF THE UNIVERSITY OF COLORADO, A BODY CORPORATE, priority 2021, published 2024)

Legend:
[1] = manufacturer reported; cited from earlier work
[2] = tested on: Balb/cJ recipients and C57BL/6 donors; test: MHC-mismatched allogeneic BMT, donor cell engraftment by FACS of peripheral blood (Balb/cJ recipients, C57BL/6 donors); format: in vivo, mice; conditions: 4 Gy RIC TBI, 90 mg/kg oral gavage twice daily Day -5 through Day +2, 4 weeks post-BMT, n=7
Protocol: (§1) In one exemplary method, mouse models of human allogeneic bone marrow transplant events were prepared. In brief, major histocompatibility complex (MHC)-mismatched bone marrow transplants (BMTs, HCT)—which model human allogeneic BMTs—were performed in mice. Mice used in this exemplary method were the C57BL/6 mouse strain (which express the MHC marker H2K^b) and the Balb/cJ strain (which express the MHC marker H2K^d). Both mouse strains were maintained by homozygous breeding according to established vivarium practices. Mice approximately 6-10 weeks of age were used for both recipients and donors. Donors and recipients were matched in gender (male recipient mice receive cells from male donors while female recipients receive cells from female donors).
(§2) In another exemplary method, BMT was performed by isolating bone marrow cells from the bones of euthanized donor mice using a method similar to previous methods (Amend et al., J Vis Exp. 2016 Apr. 14; (110):53936). […] Viable cells (which excluded Trypan Blue) were counted using a hematocytometer. […] Stained cells were resuspended in PBS and evaluated via Fluorescent-Activated Cell Sorting (FACS) on a Cytek Aurora cytometer. FACS data was analyzed using FloJo software. […] Cells which were negative for Ter119 (RBCs) and positive for CD45 (hematopoietic cells) were further analyzed. […]

[3] = tested on: C57BL/6 recipients and Balb/cJ donors; test: MHC-mismatched allogeneic BMT, donor cell engraftment by FACS of peripheral blood (C57BL/6 recipients, Balb/cJ donors); format: in vivo, mice; conditions: 6.5 Gy RIC TBI
Protocol: as §1, §2

[4] = tested on: recipient and donor NK and T cells (mouse spleen cells); test: Effect on recipient versus donor NK and T cells in spleen after BMT (FACS); format: in vivo, mice; conditions: spleen cells after BMT (data not shown)
Protocol: In another exemplary method, BMTs were performed and assessed to determine the effects of JAK inhibitors on recipient compared to donor NK and T cells as outlined in FIG. 6. In this exemplary method, BMTs were performed in mice as described in Example 1 wherein C57BL/6 mice were the transplant donors while Balb/cJ mice served as stem cell recipients. Recipient mice were treated with Ruxolitinib and given RIC TBI followed by BMT as previously described in the examples herein. On Day +1 and Day +3 post-BMT, a portion of the recipient mice were euthanized, and their spleens were harvested. The spleen cells were prepared into a single cell suspension, subjected to RBC lysis, stained (using previously referenced markers in addition to T-cell subset markers, CD4 and CD8) and analyzed by FACS as described in the examples herein.

Structure (SMILES)	solubility in DMSO [1]	donor cell engraftment (mice engrafted) [2]	donor cell engraftment (mice engrafted) ([3]; 180 mg/kg Day -5 through Day +2, 4 weeks post-BMT, n=6)	donor cell engraftment (mice engrafted) ([3]; 270 mg/kg Day -5 through Day +2, 4 weeks post-BMT, n=3)	effect on donor T cells [4]
N#CC[C@H](C1CCCC1)n1cc(-c2ncnc3[nH]ccc23)cn1 [Ruxolitinib phosphate]	200 mg/mL	–	–	–	–
N#CC[C@H](C1CCCC1)n1cc(-c2ncnc3[nH]ccc23)cn1 [ruxolitinib]	–	100%	100%	100%	no significant effect
